Reference: BigSolDB 2.1

[NH3+]O.[NH3+]O.[O-]n1nnnc1-c1nnnn1[O-]
solubility (mole fraction)
Conditions	298.15 K	303.15 K	308.15 K	313.15 K	318.15 K	323.15 K	328.15 K	333.15 K
in formic acid	0.00145	0.00161	0.0018	0.00201	0.00225	0.00254	0.00287	0.00325
in water	7.96e-05	0.000155	0.00024	0.000317	0.000403	0.000489	0.00058	0.000665
